# From patent EP0535528A1, “Antibacterial 5-Nitro-1-methyl-imidazolyl-3-terbutyl-2-hydroxy-aryl-carbinols” (EURORESEARCH S.r.L., priority 1991, dated 1993)
# Assays:
# Helicobapter pylori [1] = assay: Minimal inhibiting concentration (agar dilution); type: cell-based
# Method: Substances under examination: EU11100, EU11102, EU11103, EU11104. Comparison substance: Metronidazole Solubilization of the substances: All the substances to be studied are dissolved at room temperature in DMSO. […] 10 strains of Helicobapter pylori are used of recent clinical isolation […] The sowing of the bacteria, prepared as described in the preceding test is carried out by means a "multi-point inoculator". After 48 hours incubation under the condition described in the preceding test, the plates are examined and the Minimal Inhibiting Concentration is evaluated, namely that dose corresponding to growth absence.
# Swiss female albino mice = assay: Oral and intraperitoneal acute toxicity in mice (LD50, Probits method); type: in vivo; conditions: mice
# Method: 20 Swiss female albino mice are used for this test of the average weight of 20 g (±2), coming from Nossan breeding .
# Cages: in Makrolon® with saw dust litter, Number of animals per cage: 5 Acclimation period: 1 week Temperature: 22°C (± 2°C) Humidity : 60%, Diet: pellets for mice produced by Nossan firm, Water ad libitum Fast before the treatment: 16 hours
# Oral by gastric route and intraperitoneal.
# The substances to be studied: EU11100, EU11102, EU11103, EU11104 are treated with 0.5% carboxymethylcellulose in spring water, for the oral administration, whereas the same substances are intraperitoneally administered in the form of a physiological solution .
# For each of the above mentioned substances, a mother suspension is prepared having a concentration in the active ingredient of 250 mg/ml for the oral administration, and analogously a mother suspension is prepared for the intraperitoneal administration having a concentration of the desired active principle of 100 mg/ml.
# The following doses are used • a) oral route: 5000 mg/kg • b) intraperitoneal route : 2000 mg/kg
# If mortality is observed at the above mentioned doses, other doses are administered in order to obtain a dose-response curve.
# 5 animals are used for every utilized concentration.
# After the administration of the above substances the animals are kept under observation for 14 days , during which the mortality and the behaviour is observed.
# LD₅₀ is determined on the base of the cumulative mortality observed in the successive 14 days after the administration by using the Probits method.
# Helicobapter pylori [2] = assay: Inhibition halos of the bacterial growth (impregnated disks on agar); type: cell-based; conditions: for activity against the Helicobapter pylori strains used: 10 strains; for Inhibition halo (mm), Average: average of 10 strains
# Method: Comparison substance: Metronidazole Solubilization of the substances : All the substances to be studied are dissolved at room temperature in DMSO.
# Some commercially available antibiogram disks are so impregnated with the above mentioned compounds that each disk has concentration equal to 10, 1, 0.1, 0.01 µg.
# 10 strains of Helicobapter pylori are used of recent clinical isolation.
# Columbia Blood Agar Base is used, containing 5% of defibrinated horse blood, 2 % of calf serum, 2 vials of Vitox per liter of medium and Vancomicine (10 µg/ml) Trimetoprim lactate(5 µg/ml) and Polimixin B (2.5 U/ml).
# 0.1 ml of a suspension of the different used strains are uniformly distributed onto Petri plates, containing 20 ml of Columbia Blood Agar base, obtained by taking a sample, by means of a platinum loop, of different colonies from a 48 hours culture, grown in anaerobiosis jars with "Gas Pack", without a catalyst and diluted into a physiological solution.
# 4 disks per plate, previously impregnated with the substances under examination, are then placed onto the agar layer of each plate.
# After 48 hours of anaerobiosis incubation, as above described, the inhibition halos of the bacterial growth, produced by the different activity of the substances inside the agar, are evaluated.
structure (smiles),measurement,setting,value
"Cn1c([N+](=O)[O-])cnc1C(O)c1cc(C(C)(C)C)cc(C(C)(C)C)c1O (stereo not shown) [EU11102, 5-nitro-1-methyl-imidazolyl-3,5-diterbutyl-2-hydroxy-phenyl-carbinol]",MIC50,Helicobapter pylori [1]; 10 strains,0.25 µg/mL
same,MIC90,Helicobapter pylori [1]; 10 strains,0.5 µg/mL
same,MIC range,Helicobapter pylori [1]; 10 strains,0.25 to 0.5 µg/mL
same,MIC,Helicobapter pylori [1]; strain 1,0.5 µg/mL
same,MIC,Helicobapter pylori [1]; strain 2,0.25 µg/mL
same,MIC,Helicobapter pylori [1]; strain 3,0.25 µg/mL
same,MIC,Helicobapter pylori [1]; strain 4,0.5 µg/mL
same,MIC,Helicobapter pylori [1]; strain 5,0.25 µg/mL
same,MIC,Helicobapter pylori [1]; strain 6,0.5 µg/mL
same,MIC,Helicobapter pylori [1]; strain 7,0.25 µg/mL
same,MIC,Helicobapter pylori [1]; strain 8,0.25 µg/mL
same,MIC,Helicobapter pylori [1]; strain 9,0.25 µg/mL
same,MIC,Helicobapter pylori [1]; strain 10,0.25 µg/mL
same,toxicity when intraperitoneally administered,"Swiss female albino mice; intraperitoneal, 2000 mg/kg",not toxic
same,toxicity when orally administered,"Swiss female albino mice; oral, 5000 mg/kg",not toxic
same,activity against the Helicobapter pylori strains used,Helicobapter pylori [2]; 1 µg/disk,active against all the Helicobapter pylori used
same,activity against the Helicobapter pylori strains used,Helicobapter pylori [2]; disk test,active against all the Helicobapter pylori strains used
same,"Inhibition halo (mm), Average",Helicobapter pylori [2]; 1 µg/disk,15.1 mm
same,"Inhibition halo (mm), Average",Helicobapter pylori [2]; 10 µg/disk,22.9 mm
same,Inhibition halo (mm) at the concentration (µg/disk),"Helicobapter pylori [2]; strain 1, 0.01 µg/disk",0 mm
same,Inhibition halo (mm) at the concentration (µg/disk),"Helicobapter pylori [2]; strain 1, 0.1 µg/disk",0 mm
same,Inhibition halo (mm) at the concentration (µg/disk),"Helicobapter pylori [2]; strain 1, 1 µg/disk",15 mm
same,Inhibition halo (mm) at the concentration (µg/disk),"Helicobapter pylori [2]; strain 1, 10 µg/disk",23 mm
same,Inhibition halo (mm) at the concentration (µg/disk),"Helicobapter pylori [2]; strain 2, 0.01 µg/disk",0 mm
same,Inhibition halo (mm) at the concentration (µg/disk),"Helicobapter pylori [2]; strain 2, 0.1 µg/disk",0 mm
same,Inhibition halo (mm) at the concentration (µg/disk),"Helicobapter pylori [2]; strain 2, 10 µg/disk",22 mm
same,Inhibition halo (mm) at the concentration (µg/disk),"Helicobapter pylori [2]; strain 3, 0.01 µg/disk",0 mm
same,Inhibition halo (mm) at the concentration (µg/disk),"Helicobapter pylori [2]; strain 3, 0.1 µg/disk",0 mm
same,Inhibition halo (mm) at the concentration (µg/disk),"Helicobapter pylori [2]; strain 3, 1 µg/disk",12 mm
same,Inhibition halo (mm) at the concentration (µg/disk),"Helicobapter pylori [2]; strain 3, 10 µg/disk",22 mm
same,Inhibition halo (mm) at the concentration (µg/disk),"Helicobapter pylori [2]; strain 4, 0.01 µg/disk",0 mm
same,Inhibition halo (mm) at the concentration (µg/disk),"Helicobapter pylori [2]; strain 4, 0.1 µg/disk",0 mm
same,Inhibition halo (mm) at the concentration (µg/disk),"Helicobapter pylori [2]; strain 4, 1 µg/disk",16 mm
same,Inhibition halo (mm) at the concentration (µg/disk),"Helicobapter pylori [2]; strain 4, 10 µg/disk",24 mm
same,Inhibition halo (mm) at the concentration (µg/disk),"Helicobapter pylori [2]; strain 5, 0.01 µg/disk",0 mm
same,Inhibition halo (mm) at the concentration (µg/disk),"Helicobapter pylori [2]; strain 5, 0.1 µg/disk",0 mm
same,Inhibition halo (mm) at the concentration (µg/disk),"Helicobapter pylori [2]; strain 5, 1 µg/disk",16 mm
same,Inhibition halo (mm) at the concentration (µg/disk),"Helicobapter pylori [2]; strain 5, 10 µg/disk",22 mm
same,Inhibition halo (mm) at the concentration (µg/disk),"Helicobapter pylori [2]; strain 6, 0.01 µg/disk",0 mm
same,Inhibition halo (mm) at the concentration (µg/disk),"Helicobapter pylori [2]; strain 6, 0.1 µg/disk",0 mm
same,Inhibition halo (mm) at the concentration (µg/disk),"Helicobapter pylori [2]; strain 6, 1 µg/disk",17 mm
same,Inhibition halo (mm) at the concentration (µg/disk),"Helicobapter pylori [2]; strain 6, 10 µg/disk",25 mm
same,Inhibition halo (mm) at the concentration (µg/disk),"Helicobapter pylori [2]; strain 7, 0.01 µg/disk",0 mm
same,Inhibition halo (mm) at the concentration (µg/disk),"Helicobapter pylori [2]; strain 7, 0.1 µg/disk",0 mm
same,Inhibition halo (mm) at the concentration (µg/disk),"Helicobapter pylori [2]; strain 7, 1 µg/disk",14 mm
same,Inhibition halo (mm) at the concentration (µg/disk),"Helicobapter pylori [2]; strain 7, 10 µg/disk",21 mm
same,Inhibition halo (mm) at the concentration (µg/disk),"Helicobapter pylori [2]; strain 8, 0.01 µg/disk",0 mm
same,Inhibition halo (mm) at the concentration (µg/disk),"Helicobapter pylori [2]; strain 8, 0.1 µg/disk",0 mm
same,Inhibition halo (mm) at the concentration (µg/disk),"Helicobapter pylori [2]; strain 8, 1 µg/disk",15 mm
same,Inhibition halo (mm) at the concentration (µg/disk),"Helicobapter pylori [2]; strain 8, 10 µg/disk",23 mm
same,Inhibition halo (mm) at the concentration (µg/disk),"Helicobapter pylori [2]; strain 9, 0.01 µg/disk",0 mm
same,Inhibition halo (mm) at the concentration (µg/disk),"Helicobapter pylori [2]; strain 9, 0.1 µg/disk",0 mm
same,Inhibition halo (mm) at the concentration (µg/disk),"Helicobapter pylori [2]; strain 9, 1 µg/disk",16 mm
same,Inhibition halo (mm) at the concentration (µg/disk),"Helicobapter pylori [2]; strain 9, 10 µg/disk",24 mm
same,Inhibition halo (mm) at the concentration (µg/disk),"Helicobapter pylori [2]; strain 10, 0.01 µg/disk",0 mm
same,Inhibition halo (mm) at the concentration (µg/disk),"Helicobapter pylori [2]; strain 10, 0.1 µg/disk",0 mm
same,Inhibition halo (mm) at the concentration (µg/disk),"Helicobapter pylori [2]; strain 10, 1 µg/disk",15 mm
same,Inhibition halo (mm) at the concentration (µg/disk),"Helicobapter pylori [2]; strain 10, 10 µg/disk",23 mm
